From publication PMC9933440 (Crystal Growth & Design, 2022)
Values after ≈ are worked out from the molar mass of the structure shown. Values joined by “and” are separate entries in the source; they are usually repeats but may differ in a detail not shown here. Equal values may be shown once. Read-outs that look alike come from different tables or passages of the source. One block for each compound: values may come before it.

Assays:
[1] = pKa (base) – pKa (acid)
[2] = cited from earlier work
[3] = cited from earlier work; remark: listed apart in the source
[4] = cited from earlier work; remark: listed apart in the source
[5] = Solubility experiments in sodium phosphate buffer pH 6.5, 37 °C (HPLC); conditions: for dissolved MEL / dissolved PRM: highest dissolved concentration, sodium phosphate buffer pH 6.5, 37 °C
Protocol: Solubility experiments were conducted in sodium phosphate buffer solutions at pH 6.5 and 37 °C to simulate intestinal physiological conditions. For each experiment, an excess crystalline solid was sieved through a 300 μm sieve and introduced into a flask with a screw top containing 100 mL of the medium. The solution was stirred at 200 rpm using a magnetic stir bar for 48 h to reach the equilibrium state. […] After each sampling, the volume of the liquid removed from the suspension was not compensated. The withdrawn suspension was filtered through 0.2 μm nylon filters and diluted prior to high-performance liquid chromatography (HPLC) analysis. The solubility experiment for each crystal form was repeated in triplicate. After the last sample collection, the remaining solid material in the suspension was filtered, dried, and characterized by IR and PXRD.
A C18 HPLC column (YMC-Pack ODS-A column, 4.6 mm × 250 mm, 5 μm) with a flow rate of 1 mL min^–1 was employed, and the column temperature was set at 25 °C. The binary mobile phase consisted of acetonitrile and sodium phosphate buffer (pH 6.5) in a volume ratio of 25:75. The samples were diluted appropriately with the mobile phase, and the absorbance was measured at 347 nm.

[6] = cited from earlier work; remark: listed apart in the source

ΔpKa for MEL ([1]; hydroxyl group of MEL): 8.61
ΔpKa for PRM ([1]; hydroxyl group of PRM): 7.84
Structure (SMILES): CN(C)c1ccncc1 [4DMP, 4-dimethylaminopyridine]

Structure (SMILES): CN1C(C(=O)Nc2ccccn2)=C(O)c2sc(Cl)cc2S1(=O)=O.N [LRM NH3]
dissolution vs parent API (fold) ([2]; pH 7): improved dissolution at pH 7 (x 1.3–1.6)

Structure (SMILES): CC(=O)Oc1ccccc1C(=O)O.Cc1cnc(NC(=O)C2=C(O)c3ccccc3S(=O)(=O)N2C)s1 [MEL Aspirin]
solubility vs parent API (fold) ([3]; pH 7.4): 44 x
bioavailability vs parent API (fold) [4]: 4.4 x

Structure (SMILES): CN1C(C(=O)Nc2ccccn2)=C(O)c2sccc2S1(=O)=O.O=C(O)c1ccccc1 [TNM benzoic acid]
IDR vs parent API (fold) ([2]; pH 7): 2 x
solubility vs parent API ([3]; pH 7): no solubility advantage

Structure (SMILES): CN1C(C(=O)Nc2ccccn2)=C(O)c2ccccc2S1(=O)=O.NC(N)=O [PRM urea]
solubility vs parent API [3]: no solubility advantage

Structure (SMILES): CN1C(C(=O)Nc2ccccn2)=C(O)c2sccc2S1(=O)=O.O=C(O)CO [TNM glycolic acid]
IDR vs parent API ([2]; pH 4.5): no IDR advantage at pH 4.5 and 6.8
IDR vs parent API ([2]; pH 6.8): no IDR advantage at pH 4.5 and 6.8

Structure (SMILES): CN1C(C(=O)Nc2ccccn2)=C(O)c2sc(Cl)cc2S1(=O)=O.O=C(O)c1ccccc1O [LRM salicylic acid]
solubility vs parent API ([3]; in H2O): no solubility advantage in H2O

Structure (SMILES): Cc1cnc(NC(=O)C2=C(O)c3ccccc3S(=O)(=O)N2C)s1.N=C(N)NCCCC(N)C(=O)O [MEL arginine]
dissolution behavior vs parent API ([2]; pH 7.5): improved dissolution behavior

Structure (SMILES): CN1C(C(=O)Nc2ccccn2)=C(O)c2ccccc2S1(=O)=O.COc1cc(/C=C/C(=O)O)ccc1O [PRM ferulic acid]
IDR vs parent API (fold) ([2]; pH 2): 1.7 x

Structure (SMILES): Cc1cnc(NC(=O)C2=C(O)c3ccccc3S(=O)(=O)N2C)s1.NC(CS)C(=O)O [MEL cysteine]
dissolution behavior vs parent API ([2]; pH 7.5): improved dissolution behavior at pH 7.5

Structure (SMILES): Cc1cnc(NC(=O)C2=C(O)c3ccccc3S(=O)(=O)N2C)s1.O=C(O)CCc1ccccc1 [MEL hydrocinnamic acid]
bioavailability vs parent API [4]: no bioavailability advantage

Structure (SMILES): CN1C(C(=O)Nc2ccccn2)=C(O)c2ccccc2S1(=O)=O.NCCO [PRM ethanolamine]
bioavailability vs parent API [4]: higher bioavailability

Structure (SMILES): CN1C(C(=O)Nc2ccccn2)=C(O)c2sc(Cl)cc2S1(=O)=O.O=C(O)CCCC(=O)O [LRM glutaric acid]
solubility vs parent API ([3]; in H2O): no solubility advantage in H2O

Structure (SMILES): CN1C(C(=O)Nc2ccccn2)=C(O)c2sc(Cl)cc2S1(=O)=O.O=C(O)c1ccc(O)cc1 [LRM 4-hydroxy benzoic acid]
solubility vs parent API (fold) ([3]; in H2O): improved solubility in H2O (x 1.6–6.9)

Structure (SMILES): Cc1cnc(NC(=O)C2=C(O)c3ccccc3S(=O)(=O)N2C)s1.Nc1ccncc1 [MEL-4AP]
dissolved MEL [5]: 0.68 ± 0.05 mg mL^–1
dissolved MEL, times higher than that of the pure MEL ([5]; pH 6.5, 37 °C): 8.1 times
time for which the supersaturation state is maintained ([5]; pH 6.5, 37 °C): > 300 min
apparent solubility compared with the pure API ([5]; pH 6.5, this work): higher solubility at pH 6.5

Structure (SMILES): CN(C)c1ccncc1.Cc1cnc(NC(=O)C2=C(O)c3ccccc3S(=O)(=O)N2C)s1 [MEL-4DMP]
dissolved MEL [5]: 0.85 ± 0.02 mg mL^–1
time for which the supersaturation state is maintained ([5]; pH 6.5): more than 200 min
dissolved MEL, times higher than that of the pure MEL ([5]; pH 6.5, 37 °C): 10.2 times

Structure (SMILES): CN1C(C(=O)Nc2ccccn2)=C(O)c2sccc2S1(=O)=O.O=C1NS(=O)(=O)c2ccccc21 [TNM saccharin]
IDR vs parent API ([2]; pH 4.5): no IDR advantage at pH 4.5 and 6.8
IDR vs parent API ([2]; pH 6.8): no IDR advantage at pH 4.5 and 6.8

Structure (SMILES): Cc1cnc(NC(=O)C2=C([O-])c3ccccc3S(=O)(=O)N2C)s1.O.[K+] [MEL KOH H2O]
dissolution behavior vs parent API ([2]; pH 5.6): improved dissolution behavior
bioavailability vs parent API ([4]; in vivo): no bioavailability advantage

Structure (SMILES): CN1C(C(=O)Nc2ccccn2)=C(O)c2sc(Cl)cc2S1(=O)=O.CNC(=O)NC [LRM 1,3-dimethyl urea]
IDR vs parent API (fold) ([2]; pH 1.2): 28 x
IDR vs parent API (fold) ([2]; pH 7.4): 19 x
bioavailability vs parent API (fold) [4]: 2.5 x

Structure (SMILES): CN1C(C(=O)Nc2ccccn2)=C(O)c2sccc2S1(=O)=O.Oc1cccc(O)c1O [TNM pyrogallol]
IDR vs parent API (fold) ([2]; pH 7): 2.4–4.2 x
solubility vs parent API (fold) ([3]; pH 7): 5.8–10.1 x

Structure (SMILES): C1CNCCN1.CN1C(C(=O)Nc2ccccn2)=C(O)c2sccc2S1(=O)=O [TNM piperazine]
IDR vs parent API (fold) ([2]; pH 7): 2.5 x
solubility vs parent API (fold) ([3]; pH 7): 5.5 x

Structure (SMILES): CN1C(C(=O)Nc2ccccn2)=C(O)c2ccccc2S1(=O)=O.Nc1ccncc1 [PRM-4AP]
dissolved PRM [5]: 1.08 mg mL^–1 and 1.08 ± 0.02 mg mL^–1
dissolved PRM, times higher than that of the anhydrous PRM ([5]; pH 6.5, 37 °C): 2.8 times
apparent solubility compared with the pure API ([5]; pH 6.5, this work): higher solubility

Structure (SMILES): Cc1cnc(NC(=O)C2=C(O)c3ccccc3S(=O)(=O)N2C)s1.NCC(=O)O [MEL glycine]
dissolution behavior vs parent API ([2]; pH 7.5): improved dissolution behavior at pH 7.5

Structure (SMILES): CN1C(C(=O)Nc2ccccn2)=C(O)c2sccc2S1(=O)=O.O=C(O)CCC(=O)O [TNM succinic acid]
IDR vs parent API ([2]; pH 4.5): no IDR advantage at pH 4.5 and 6.8
IDR vs parent API ([2]; pH 6.8): no IDR advantage at pH 4.5 and 6.8

Structure (SMILES): CN1C(C(=O)Nc2ccccn2)=C(O)c2sc(Cl)cc2S1(=O)=O.O=C(O)c1ccccc1 [LRM benzoic acid]
solubility vs parent API ([3]; in H2O): no solubility advantage in H2O

Structure (SMILES): CN1C(C(=O)Nc2ccccn2)=C(O)c2sccc2S1(=O)=O.CS(=O)(=O)O [TNM methanesulfonic acid]
IDR vs parent API ([2]; pH 7): no solubility and IDR advantages at pH 7
solubility vs parent API ([3]; pH 7): no solubility and IDR advantages at pH 7

Structure (SMILES): CN1C(C(=O)Nc2ccccn2)=C(O)c2ccccc2S1(=O)=O.COc1cc(C=O)ccc1O [PRM vanillin]
IDR vs parent API ([2]; pH 1.2): no solubility and IDR advantages
dissolution rates in the sink condition ([2]; pH 1.2): superior dissolution rates
solubility vs parent API ([3]; pH 1.2): no solubility and IDR advantages

Structure (SMILES): CN1C(C(=O)Nc2ccccn2)=C(O)c2ccccc2S1(=O)=O.Cc1nc(-c2ccc(OCC(C)C)c(C#N)c2)sc1C(=O)O [PRM febuxostat]
dissolution vs parent API (fold) ([2]; pH 6.8): 2.8 x

Structure (SMILES): CN1C(C(=O)Nc2ccccn2)=C(O)c2ccccc2S1(=O)=O.COC(=O)c1ccc(O)cc1 [PRM methylparaben]
IDR vs parent API ([2]; pH 1.2): no solubility and IDR advantages
dissolution rates in the sink condition ([2]; pH 1.2): superior dissolution rates

Structure (SMILES): CN1C(C(=O)Nc2ccccn2)=C(O)c2sccc2S1(=O)=O.O=C(O)c1ccccc1O [TNM salicylic acid]
IDR vs parent API ([2]; pH 4.5): no IDR advantage at pH 4.5 and 6.8
IDR vs parent API ([2]; pH 6.8): no IDR advantage at pH 4.5 and 6.8
IDR vs parent API ([2]; pH 7): no solubility and IDR advantages at pH 7
solubility vs parent API ([3]; pH 7): no solubility and IDR advantages at pH 7

Structure (SMILES): CN1C(C(=O)Nc2ccccn2)=C(O)c2ccccc2S1(=O)=O [PRM, Piroxicam]
dissolved PRM [5]: 0.39 mg mL^–1 and 0.39 ± 0.01 mg mL^–1
time to highest solubility / maximum dissolved concentration / equilibrium ([5]; pH 6.5): 60 min
solubility thermodynamic at 48 h ([5]; pH 6.5, aqueous buffer): 140 µg/mL (≈ 423 µM)

Structure (SMILES): C1CNCCN1.CN1C(C(=O)Nc2ccccn2)=C(O)c2ccccc2S1(=O)=O.CN1C(C(=O)Nc2ccccn2)=C(O)c2ccccc2S1(=O)=O [PRM-PPZ]
dissolved PRM [5]: 0.43 mg mL^–1 and 0.43 ± 0.04 mg mL^–1
apparent solubility compared with the pure API ([5]; pH 6.5): higher solubility
dissolved PRM, times higher than that of the anhydrous PRM ([5]; pH 6.5, 37 °C): 1.1 times

Structure (SMILES): Cc1cnc(NC(=O)C2=C(O)c3ccccc3S(=O)(=O)N2C)s1.O=C(O)c1ccc(O)cc1 [MEL 4-hydroxybenzoic acid]
solubility vs parent API ([3]; pH 6.5): higher solubility
bioavailability vs parent API (fold) [4]: 1.1–1.6 x

Structure (SMILES): Cc1cnc(NC(=O)C2=C(O)c3ccccc3S(=O)(=O)N2C)s1.O=C(O)CO [MEL glycolic acid]
bioavailability vs parent API [4]: no bioavailability advantage

Structure (SMILES): CN1C(C(=O)Nc2ccccn2)=C(O)c2ccccc2S1(=O)=O.OCCN(CCO)CCO [PRM triethanolamine]
bioavailability vs parent API [4]: higher bioavailability

Structure (SMILES): CN1C(C(=O)Nc2ccccn2)=C(O)c2ccccc2S1(=O)=O.OCCNCCO [PRM diethanolamine]
bioavailability vs parent API [4]: higher bioavailability

Structure (SMILES): CN1C(C(=O)Nc2ccccn2)=C(O)c2ccccc2S1(=O)=O.NS(=O)(=O)c1cc(C(=O)O)c(NCc2ccco2)cc1Cl [PRM furosemide]
stability under accelerated aging [6]: good stability under accelerated aging
thermal stability [6]: good thermal stability

Structure (SMILES): CN1C(C(=O)Nc2ccccn2)=C(O)c2sc(Cl)cc2S1(=O)=O.Cl [LRM HCl]
dissolution vs parent API (fold) ([2]; pH 7): improved dissolution at pH 7 (x 1.3–1.6)

Structure (SMILES): CN1C(C(=O)Nc2ccccn2)=C(O)c2sc(Cl)cc2S1(=O)=O.CS(=O)(=O)O [LRM methanesulfonic acid]
dissolution vs parent API (fold) ([2]; pH 7): improved dissolution at pH 7 (x 1.3–1.6)

Structure (SMILES): CN(C)c1ccncc1.CN1C(C(=O)Nc2ccccn2)=C(O)c2ccccc2S1(=O)=O [PRM-4DMP]
dissolved PRM [5]: 1.07 mg mL^–1 and 1.07 ± 0.01 mg mL^–1
apparent solubility compared with the pure API ([5]; pH 6.5): higher solubility
dissolved PRM, times higher than that of the anhydrous PRM ([5]; pH 6.5, 37 °C): 2.8 times

Structure (SMILES): Cc1cnc(NC(=O)C2=C(O)c3ccccc3S(=O)(=O)N2C)s1.O=C(O)/C=C/C(=O)O [MEL fumaric acid]
bioavailability vs parent API [4]: no bioavailability advantage

Structure (SMILES): CN1C(C(=O)Nc2ccccn2)=C(O)c2sccc2S1(=O)=O.Cl [TNM HCl]
IDR vs parent API ([2]; pH 7): no solubility and IDR advantages at pH 7
solubility vs parent API ([3]; pH 7): no solubility and IDR advantages at pH 7
